{
  "source": "patent US20230027854A1",
  "about": "“ISOXAZOLE DERIVATIVES TARGETING TACC3 AS ANTICANCER AGENTS” (A2A Pharmaceuticals, inc., priority 2019, published 2023)",
  "data": [
    {"test_system": "JIMT-1 cells", "assay": "JIMT-1 cell growth inhibition / cell viability (SRB assay)", "type": "cell-based", "conditions": "Homo sapiens; JIMT-1 cells; read-out: IC50", "procedure": "The ability of the compounds of the present disclosure to treat TACC3-mediated cancers, or associated symptoms or complications thereof, was determined using the following procedures. The compounds of the present disclosure were tested for their activity against cell death induction using a JIMT-1 cell line, which was a cell line having high level of TACC3. The concentration of each compound that was required for half-maximal inhibition of cell proliferation was calculated by a GraphPad Prism (GraphPad Software).", "units": {"IC50": "nM"}, "values": [
      {"smiles": "CCOc1ccc(-c2cc(Nc3ccnc(N4CCOCC4)n3)on2)cc1", "note": "[Compound 9, 3-(4-ethoxyphenyl)-N-(2-morpholinopyrimidin-4-yl)isoxazol-5-amine]", "IC50": 810},
      {"smiles": "COc1ccc(-c2cc(Nc3ccnc(N4CCCC4)n3)on2)cc1", "note": "[Compound 45, 3-(4-methoxyphenyl)-N-(2-(pyrrolidin-1-yl)pyrimidin-4-yl)isoxazol-5-amine]", "IC50": 105},
      {"smiles": "FC(F)Oc1ccc(-c2cc(Nc3ccnc(N4CCOCC4)n3)on2)cc1", "note": "[Compound 18, 3-(4-(difluoromethoxy)phenyl)-N-(2-morpholinopyrimidin-4-yl)isoxazol-5-amine]", "IC50": 4230},
      {"smiles": "CSc1ccc(-c2cc(Nc3ccnc(N4CCOCC4)n3)on2)cc1", "note": "[Compound 20, 3-(4-(methylthio)phenyl)-N-(2-morpholinopyrimidin-4-yl)isoxazol-5-amine]", "IC50": 30},
      {"smiles": "COc1ccc(-c2cc(Nc3ccnc(N4CCC(F)CC4)n3)on2)cc1F", "note": "[Compound 65, 3-(3-fluoro-4-methoxyphenyl)-N-(2-(4-fluoropiperidin-1-yl)pyrimidin-4-yl)isoxazol-5-amine]", "IC50": 145},
      {"smiles": "Clc1ccc(-c2cc(Nc3ccnc(N4CCOCC4)n3)on2)cc1", "note": "[Compound 12, 3-(4-chlorophenyl)-N-(2-morpholinopyrimidin-4-yl)isoxazol-5-amine]", "IC50": "> 10000"},
      {"smiles": "Cc1ccc(-c2cc(Nc3ccnc(N4CCOCC4)n3)on2)cc1", "note": "[Compound 13, N-(2-morpholinopyrimidin-4-yl)-3-(p-tolyl)isoxazol-5-amine]", "IC50": 640},
      {"smiles": "COc1ccc(-c2cc(Nc3ccnc(N4CC5CCC(C4)O5)n3)on2)cc1", "note": "[Compound 35, N-(2-(8-oxa-3-azabicyclo[3.2.1]octan-3-yl)pyrimidin-4-yl)-3-(4-methoxyphenyl)isoxazol-5-amine]", "IC50": 3090},
      {"smiles": "COc1ccc(-c2cc(Nc3nc(N4CCC(F)CC4)ncc3Cl)on2)cc1", "note": "[Compound 59, N-(5-chloro-2-(4-fluoropiperidin-1-yl)pyrimidin-4-yl)-3-(4-methoxyphenyl)isoxazol-5-amine]", "IC50": 800},
      {"smiles": "COc1ccc(-c2cc(Nc3nc(N4CCC(F)CC4)ncc3F)on2)cc1", "note": "[Compound 60, N-(5-fluoro-2-(4-fluoropiperidin-1-yl)pyrimidin-4-yl)-3-(4-methoxyphenyl)isoxazol-5-amine]", "IC50": 540},
      {"smiles": "COc1ccc(-c2cc(Nc3ccnc(N4C5CCC4COC5)n3)on2)cc1", "note": "[Compound 34, N-(2-(3-oxa-8-azabicyclo[3.2.1]octan-8-yl)pyrimidin-4-yl)-3-(4-methoxyphenyl)isoxazol-5-amine]", "IC50": 160},
      {"smiles": "CC(F)(F)c1ccc(-c2cc(Nc3ccnc(N4CCOCC4)n3)on2)cc1", "note": "[Compound 17, 3-(4-(1,1-difluoroethyl)phenyl)-N-(2-morpholinopyrimidin-4-yl)isoxazol-5-amine]", "IC50": "> 10000"},
      {"smiles": "COc1ccc(-c2cc(Nc3ccnc(N4C5CCC4COC5)n3)on2)cc1F", "note": "[Compound 66, N-(2-(3-oxa-8-azabicyclo[3.2.1]octan-8-yl)pyrimidin-4-yl)-3-(3-fluoro-4-methoxyphenyl)isoxazol-5-amine]", "IC50": 53},
      {"smiles": "COc1ccc(-c2cc(Nc3ccnc(N4C[C@@H]5C[C@H]4CO5)n3)on2)cc1", "note": "[Compound 36, N-(2-((1S,4S)-2-oxa-5-azabicyclo[2.2.1]heptan-5-yl)pyrimidin-4-yl)-3-(4-methoxyphenyl)isoxazol-5-amine]", "IC50": 2020},
      {"smiles": "c1cc(Nc2cc(-c3ccc4c(c3)OCO4)no2)nc(N2CCOCC2)n1", "note": "[Compound 26, 3-(benzo[d][1,3]dioxol-5-yl)-N-(2-morpholinopyrimidin-4-yl)isoxazol-5-amine]", "IC50": 870},
      {"smiles": "COc1ccc(-c2cc(Nc3ccnc(N4CCCCC4)n3)on2)cc1", "note": "[Compound 42, 3-(4-methoxyphenyl)-N-(2-(piperidin-1-yl)pyrimidin-4-yl)isoxazol-5-amine]", "IC50": 116},
      {"smiles": "COc1ccc(-c2cc(Nc3ccnc(N4CCNCC4)n3)on2)cc1", "note": "[Compound 49, 3-(4-methoxyphenyl)-N-(2-(piperazin-1-yl)pyrimidin-4-yl)isoxazol-5-amine]", "IC50": "> 10000"}
    ]}
  ]
}
